Columns and labels:
[1] = Half life in Beagle dog at 0.175 mg/kg, iv or 1 mg/kg, po administered via gavage by LC-MS/MS analysis; type: ADME, organism-based, Canis lupus familiaris; conditions: in vivo
[2] = Plasma clearance in Wistar Han rat at 1 mg/kg, iv or 2 mg/kg, po administered via gavage by LC-MS/MS analysis; type: ADME, organism-based
[3] = Plasma clearance in Beagle dog at 0.175 mg/kg, iv or 1 mg/kg, po administered via gavage by LC-MS/MS analysis; type: ADME, organism-based, Canis lupus familiaris
[4] = Volume of distribution in Beagle dog at 0.175 mg/kg, iv or 1 mg/kg, po administered via gavage by LC-MS/MS analysis; type: ADME, organism-based, Canis lupus familiaris; conditions: in vivo
[5] = Half life in Wistar Han rat at 1 mg/kg, iv or 2 mg/kg, po administered via gavage by LC-MS/MS analysis; type: ADME, organism-based; conditions: in vivo
[6] = Oral bioavailability in Wistar Han rat at 2 mg/kg administered via gavage by LC-MS/MS analysis; type: ADME, organism-based; conditions: in vivo
[7] = Oral bioavailability in Beagle dog at 1 mg/kg administered via gavage by LC-MS/MS analysis; type: ADME, organism-based, Canis lupus familiaris; conditions: in vivo
[8] = Volume of distribution in Wistar Han rat at 1 mg/kg, iv or 2 mg/kg, po administered via gavage by LC-MS/MS analysis; type: ADME, organism-based; conditions: in vivo

## O=C(O)CNC(=O)c1c(O)c2c(n(Cc3ccc(C(F)(F)F)cc3)c1=O)COC2
[1]
  half-life: 6.2 h
[2]
  clearance: 11 mL/min/kg
[3]
  clearance: 17 mL/min/kg
[4]
  Vd: 5.6 L/kg
[5]
  half-life: 7.3 h
[6]
  bioavailability: 39%
[7]
  bioavailability: 25%
[8]
  Vd: 3.1 L/kg

Reference: ChEMBL document CHEMBL4325924, “Discovery of Orally Bioavailable and Liver-Targeted Hypoxia-Inducible Factor Prolyl Hydroxylase (HIF-PHD) Inhibitors for the Treatment of Anemia” (ACS Med Chem Lett, 2018)
